According to PMC3030572, “Antamanide, a Derivative of Amanita phalloides, Is a Novel Inhibitor of the Mitochondrial Permeability Transition Pore” (PLoS ONE, 2011):
“Also recorded” adds a separate entry of the source. Read-outs that look alike come from different tables or passages of the source.

Key:
HeLa cells [1] = assay type: cell-based, human; settings: TMRM; for induction of mitochondrial depolarization / percentage of cells with depolarized mitochondria: difference from untreated cells: 1 hour; for percentage of cells with depolarized mitochondria: difference from untreated cells: Student's t test, Figure 5B
Protocol: Figure 5 Effect of AA on mitochondrial potential of HeLa cells. A, bar graphs report the ratio between the CRC detected in the presence (CRC) and absence (CRC0) of increasing concentrations of AA in mitochondria from HeLa cells. […] B,C cytofluorimetric analysis of mitochondrial depolarization. HeLa cells were incubated with the TMRM probe and treated for 1 hour with the reported concentrations of either clotrimazole (CTM) or TAT-HK peptide. An unrelated TAT-linked peptide (TAT-Ctr) is used as a negative control. […] Bar graphs in B display the percentage of cells with depolarized mitochondria (mean±SD, n = 4). […] Histograms in C report a representative experiment, where cells with polarized and depolarized mitochondria are indicated in red and grey, respectively.
(§1) Flow cytometry recordings were performed as described, [51], [52]. Briefly, at the end of the incubation, cells were resuspended in 135 mM NaCl, 10 mM HEPES, 5 mM CaCl2 and incubated at 37°C in either TMRM (10 nM) to detect mitochondrial depolarization (reduced TMRM staining), or in FITC-conjugated Annexin-V and propidium iodide (PI, 1 µg/ml), to detect phosphatidylserine exposure on the cell surface (increased FITC-conjugated Annexin-V staining) and loss of plasma membrane integrity (PI permeability and staining). […] Samples were analyzed on a FACSCanto II flow cytometer (Becton Dickinson, San Diego, CA, USA). Data acquisition and analysis were performed using FACSDiva software.

HeLa cells [2] = assay type: cell-based, human; settings: data not shown
[3] = tested on: organic anion-transporting polypeptide family; settings: also our unpublished data; ref [8]; cited from earlier work
Excerpt: (§2) Antamanide (AA) is a monocyclic, homodetic decapeptide isolated from the poisonous mushroom Amanita phalloides. […] Little is known about the biochemical mechanisms underlying these diverse bioactivities. […] The CyP chaperone activity, i.e. the isomerization to the cis form of the peptidyl bonds preceding each proline, is involved in folding and association processes required for proteins to perform thei ...

[4] = tested on: mitochondrial permeability transition pore (PTP); assay type: biochemical, mouse
Protocol: A, chemical structure of AA. B, D, Ca^2+ retention capacity (CRC) either in phosphate (Pi) buffer (B) or in arsenate (Asi) buffer (D). Calcium Green-5N fluorescence is reported as arbitrary units on the y axis.
Mitochondria were isolated either from livers of C57BL/6 mice through sequential centrifugations, or from cells, as described. To obtain mitochondria, cells were disrupted with a glass-Teflon potter in a buffer composed by 250 mM sucrose, 10 mM Tris-HCl, 0.1 mM EGTA-Tris, pH 7.4. Nuclei and plasma membrane fractions were separated by a first mild centrifugation (700× g, 10 min), and mitochondria were then spinned down at a higher speed (7000× g, 10 min). All procedures were carried out at 0–4°C.
PTP opening was detected as a fluorescence increase.

[5] = tested on: mitochondrial permeability transition pore (PTP); settings: ref [30]; cited from earlier work
Excerpt: AA is the cyclodecapeptide c([…] (Figure 1A). To evaluate its effect on the PTP, we performed Ca^2+ retention capacity (CRC) assays on isolated mouse liver mitochondria (MLM).

[6] = tested on: mouse model of the disease; settings: ref [38]; cited from earlier work
Excerpt: (§3) CyP-D is a promising pharmacological target.

[7] = tested on: muscle samples derived from patients affected by Ullrich muscular dystrophy; settings: ref [37]; cited from earlier work
Excerpt: as §3

HeLa cells [8] = assay type: cell-based, human
Protocol: A, cytofluorimetric analysis of cell death induction in HeLa cells treated for 1 hour with TAT-HK. […] TAT-Ctr was used as a negative control. Cells were double stained with Annexin V-FITC and propidium iodide (PI), to respectively evaluate apoptosis induction as phosphatidylserine exposure on the cell surface (increased Annexin V-FITC staining) and cell death as plasma membrane permeabilization (increased PI staining). We considered Annexin V^+ as early/intermediate apoptotic cells; PI^+ as necrotic cells; double stained as late apoptotic cells. Bar graphs display the percentage of each cell population (mean±SD, n = 4; double positive cells are added to both bars). […] B, histograms reporting a representative experiment, where viable cells are indicated in red, PI^+- and Annexin V^+-cells are indicated in grey and green, respectively.
as §1

immunosuppressant = tested on: immunosuppressant; design: method as in PMID 1494502, PMID 8441706; settings: ref [10], [11]; cited from earlier work
Excerpt: as §2

HCV/HIV = settings: ref [35]; cited from earlier work
Excerpt: (§4) CyP-D is a promising pharmacological target. It is part of the CyP protein family, composed by ubiquitous and extremely conserved proteins located in different subcellular compartments, [35].

lymphocyte activation = settings: via CyP-A/CsA complex; ref [36]; cited from earlier work
Excerpt: as §4

[9] = tested on: tumor necrosis; metastasis formation; settings: ref [45]; cited from earlier work
malignancies = settings: ref [47]; cited from earlier work
[10] = tested on: multidrug resistance proteins; settings: ref [50]; cited from earlier work
[11] = tested on: mitochondrial permeability transition pore (PTP); settings: ref [37]; cited from earlier work
Protocol: Briefly, at the end of the incubation, cells were resuspended in 135 mM NaCl, 10 mM HEPES, 5 mM CaCl2 and incubated at 37°C in either TMRM (10 nM) to detect mitochondrial depolarization (reduced TMRM staining), or in FITC-conjugated Annexin-V and propidium iodide (PI, 1 µg/ml), to detect phosphatidylserine exposure on the cell surface (increased FITC-conjugated Annexin-V staining) and loss of plasma membrane integrity (PI permeability and staining).

HeLa cells [12] = assay type: cell-based, human; settings: phalloidin 50 µg/ml, 1 hour, TMRM, Figure S1B
[13] = 30 min preincubation, then TAT-HK 1 hour

For `Clc1ccccc1C(c1ccccc1)(c1ccccc1)n1ccnc1` [CTM, clotrimazole], the “induction of mitochondrial depolarization” value (HeLa cells [1]) was “marked mitochondrial depolarization”, the “percentage of cells with depolarized mitochondria: difference from untreated cells” value (HeLa cells [1]; n = 4) was “significant difference (Student's t test analysis; #: p<0.01)” and the “cell death induction by clotrimazole” value (HeLa cells [2]; compared with TAT-HK) was “A similar degree of cell death was observed”.

In the case of `N#CC(C#N)=NNc1ccc(OC(F)(F)F)cc1` [FCCP], the “mitochondrial depolarization (positive control)” value (HeLa cells [1]; FCCP 4 µM) is reported as “full mitochondrial depolarization”.

For `C=CC[C@@H]1/C=C(\C)C[C@H](C)C[C@H](OC)[C@H]2O[C@@](O)(C(=O)C(=O)N3CCCC[C@H]3C(=O)O[C@H](/C(C)=C/[C@@H]3CC[C@@H](O)[C@H](OC)C3)[C@H](C)[C@@H](O)CC1=O)[C@H](C)C[C@@H]2OC` [FK506], the “inhibition of cell uptake of phalloidin” value [3] is given as “cell uptake of phalloidin was also inhibited”.

In the case of `COC1=C(OC)C(=O)C(C)=CC1=O` [Ub0, Ubiquinone 0, reference compound], the “CRC/CRC0: difference from CRC of untreated mitochondria” value ([4]; AA at various concentrations, Figure 1C and D, mean±SD of at least 4 experiments, Student's t test) is given as “significant difference (Student's t test analysis; *: p<0.01)”, the “PTP inhibition in arsenate” value ([4]; arsenate (Asi) buffer, Figure 1B, D) is given as “inhibits the pore also in Asi buffer, albeit to a lesser extent” and the “PTP inhibition when phosphate is substituted with arsenate” value [5] is given as “the effect of CsA, but not of Ub0, is abolished”.

For `CO[C@H]1C[C@@H]2CC[C@@H](C)[C@@](O)(O2)C(=O)C(=O)N2CCCC[C@H]2C(=O)O[C@H]([C@H](C)C[C@@H]2CC[C@@H](O)[C@H](OC)C2)CC(=O)[C@H](C)/C=C(\C)[C@@H](O)[C@@H](OC)C(=O)[C@H](C)C[C@H](C)/C=C/C=C/C=C/1C` [rapamycin], the “inhibition of cell uptake of phalloidin” value [3] is given as “cell uptake of phalloidin was also inhibited”.

For Debio-025, the “mitochondrial function and apoptotic rate” value [6] is given as “normalizes mitochondrial function and apoptotic rate” and the “mitochondrial function and apoptotic rate” value [7] is given as “normalizes mitochondrial function and apoptotic rate”.

For “MIASHLLAYFFTELNbA-GYGRKKRRQRRRG [TAT-HK, HKII-displacing peptide]”, the “induction of mitochondrial depolarization” value (HeLa cells [1]) was “marked mitochondrial depolarization”, the “percentage of cells with depolarized mitochondria: difference from untreated cells” value (HeLa cells [1]; n = 4) was “significant difference (Student's t test analysis; #: p<0.01)” and the cell death induction (HeLa cells [8]; TAT-HK 1 hour, Annexin V / propidium iodide) was “fast and dramatic cell death, mainly necrosis”. For the same compound, the “number of PI+ cells: difference from untreated cells” value (HeLa cells [8]; TAT-HK 1 hour, n = 4, Student's t test #: p<0.01) was “significantly increased”.

With cyclosporin A [CsA] the “reversal of CTM-induced mitochondrial depolarization” value (HeLa cells [1]; 30 min preincubation, then CTM 1 hour, n = 4) was “significantly decreased the percentage of cells with mitochondria depolarized by CTM (Student's t test analysis; *: p<0.01); also recorded: similarly reverted”, the “reversal of TAT-HK-induced mitochondrial depolarization” value (HeLa cells [1]; 30 min preincubation, then TAT-HK 1 hour, n = 4) was “similarly reverted” and the “effect on TAT-HK-induced necrotic response” value (HeLa cells [8]; [13]) was “virtually abolished the necrotic response”. For the same compound, the “residual apoptosis after TAT-HK” value (HeLa cells [8]; [13]) was “a small fraction of cells undergoing apoptosis was still detectable”, the “protection from TAT-HK induced death” value (HeLa cells [8]; 30 min preincubation, then TAT-HK 1 hour, n = 4, Student's t test *: p<0.01) was “significantly protected from TAT-HK induced death” and the “inhibition of clotrimazole-induced cell death” value (HeLa cells [2]; clotrimazole) was “inhibited the process”. For the same compound, the immunosuppressant activity (immunosuppressant) was “act as immunosuppressants”, the “prevention of HCV/HIV replication” value (HCV/HIV) was “prevent HCV/HIV replication” and the “inhibition of lymphocyte activation” value (lymphocyte activation) was “inhibits lymphocyte activation”. The “effect on tumor necrosis and metastasis” value [9] was “induces tumor necrosis and abrogates metastasis formation”, the “effect on progression of malignancies” value (malignancies) was “can enhance the progression of certain malignancies” and the “inhibition of multidrug resistance proteins” value [10] was “inhibits multidrug resistance proteins”.

In the case of cyclosporin H, the “activity on the PTP” value [11] is given as “inactive on the PTP”.

In the case of phalloidin [reference compound], the “activity on the PTP” value ([4]; phalloidin 50 µg/ml) is reported as “inactive on the PTP”, the “effect on mitochondrial Ca2+ retention capacity” value ([4]; phalloidin 50 µg/ml, MLM, 3 experiments, Figure S1A) is reported as “could not detect any effect” and the “effect on mitochondrial potential” value (HeLa cells [12]) is reported as “could not detect any effect”.
